Measured values from patent US20240228501A1, “IMIDAZOLE-CONTAINING CONDENSED RING DERIVATIVE, PREPARATION METHOD THEREFOR, AND APPLICATION THEREOF IN MEDICINE” (CHANGCHUN GENESCIENCE PHARMACEUTICAL CO., LTD., priority 2021, published 2024).

Target: T1, human NK-3 receptor (Homo sapiens, UniProt P29371)
T1 construct: expressed in transfected cells; host or cells: HEK293
T1 sequence (P29371 1-465): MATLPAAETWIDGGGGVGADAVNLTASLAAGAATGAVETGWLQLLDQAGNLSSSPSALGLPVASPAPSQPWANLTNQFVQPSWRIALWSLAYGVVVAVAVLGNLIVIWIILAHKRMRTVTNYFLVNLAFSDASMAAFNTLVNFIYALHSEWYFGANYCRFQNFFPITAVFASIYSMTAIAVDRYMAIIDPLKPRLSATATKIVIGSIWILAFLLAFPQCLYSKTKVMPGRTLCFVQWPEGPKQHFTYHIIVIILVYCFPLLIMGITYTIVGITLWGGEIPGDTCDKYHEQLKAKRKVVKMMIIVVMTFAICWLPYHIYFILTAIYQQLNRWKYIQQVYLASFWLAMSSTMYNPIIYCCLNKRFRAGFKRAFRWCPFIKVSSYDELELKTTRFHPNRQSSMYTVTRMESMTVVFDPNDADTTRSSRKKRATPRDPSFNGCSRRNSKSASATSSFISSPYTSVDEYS
Assay: Antagonistic activity on human NK-3 receptor in human NK-3R/HEK293 stably transfected cells (Fluo-4, FLIPR, Neurokinin B as agonist)
Assay type: cell-based
Conditions: human NK-3R/HEK293 cells
Protocol: Test Example 1: Determination of Activity of Compounds of the Present Invention on Human NK-3 Receptor
This method is used to determine antagonistic effects of the compounds of the present invention on the activity of human NK-3 receptor proteins expressed in cell lines stably transfected with human NK-3R/HEK293.
2.1 The cell lines stably transfected with human NK-3R/HEK293 were inoculated in a 384-well cell culture plate at a inoculation density of 12,000 cells/well/25 μL, and cultured at 37° C. and 5% CO2 overnight;
2.2 20× Component A was frozen and thawed to room temperature, diluted 2× with Assay Buffer to working concentration, and kept at room temperature for later use;
2.3 The cell culture plate was equilibrated at room temperature for 10 min, the culture medium was removed, and 20 μL of Assay Buffer and 20 μL of 2× Component A […] were added, followed by centrifugation at 200 g at room temperature for 3-5 sec, and incubation at 37° C. for 2 h;
2.4 The compound was diluted 3 times with DMSO in 384 PP_DMSO plate, and then 240 nl/well of the compound was transferred into a working plate with Echo 550, centrifugated at 200 g at room temperature for 1 min; 40 μl of Assay Buffer was added into the working plate, centrifugated at 200 g at room temperature for 1 min, and then fully mixed in an oscillator at 2500 rpm for 20 min, and then centrifugated at 200 g at room temperature for 1 min for later use;
2.5 2.5 nM Neurokinin B TFA (6×) was prepared from Assay Buffer, 50 uL of which was transferred onto 3657 plate for later use;
2.6 The cell culture plate was taken out and left to stand at room temperature for 10 min, then […] the compound diluted in step 2.4 was added into corresponding wells, and the cell culture plate was left to stand at 25° C. for 30 min; and
2.7 10 μL of the compound diluted in step 2.5 was added into the corresponding experimental wells with FLIPR Tetra, and data was collected.
The antagonistic activity of the compounds of the present invention on the human NK-3 receptor was determined through the above experiments, to obtain inhibition curves of the compounds of the present invention and determine concentrations (IC50) of the corresponding compounds that inhibit 50% of the reference agonist.

Structure (SMILES)	IC50
Cc1nsc(-c2nc(-c3cc(F)nc(F)c3)c3n2CCN(C(=O)c2ccc(F)cc2)[C@@H]3C)n1 [Compound 053, (R)-(1-(2,6-difluoropyridin-4-yl)-8-methyl-3-(3-methyl-1,2,4-thiadiazol-5-yl)-5,6-dihydroimidazo[1,5-a]pyrazin-7 (8H)-yl)(4-fluorophenyl)methanone]	20.2 nM
CC(=O)N(C)c1nc(-c2nc(C)ns2)n2c1C(C)N(C(=O)c1ccc(F)cc1)CC2 (stereo not drawn) [Compound 010, N-(7-(4-fluorobenzoyl)-8-methyl-3-(3-methyl-1,2,4-thiadiazol-5-yl)-5,6,7,8-tetrahydroimidazo[1,5-a]pyrazin-1-yl)-N-methylacetamide]	33.4 nM
CC(=O)N[C@@H]1CC(=O)N(c2nc(-c3nc(C)ns3)n3c2[C@@H](C)N(C(=O)c2ccc(F)cc2)CC3)C1 [Compound 132, N—{(R)-1-[(R)-7-(4-fluorobenzoyl)-8-methyl-3-(3-methyl-1,2,4-thiadiazol-5-yl)-5,6,7,8-tetrahydroimidazo[1,5-a]pyrazin-1-yl]-5-oxopyrrolidin-3-yl}acetamide]	16.1 nM
CO[C@@H]1CC(=O)N(c2nc(-c3nc(C)ns3)n3c2[C@@H](C)N(C(=O)c2ccc(F)cc2)CC3)C1 [Compound 115, (R)-1-[(R)-7-(4-fluorobenzoyl)-8-methyl-3-(3-methyl-1,2,4-thiadiazol-5-yl)-5,6,7,8-tetrahydroimidazo[1,5-a]pyrazin-1-yl]-4-methoxypyrrolidin-2-one]	22.7 nM
Cc1nsc(-c2nc(C(F)F)c3n2CCN(C(=O)c2ccc(F)cc2)[C@@H]3C)n1 [Compound 197, (R)-(1-(difluoromethyl)-8-methyl-3-(3-methyl-1,2,4-thiadiazol-5-yl)-5,6-dihydroimidazo[1,5-a]pyrazin-7 (8H)-yl)(4-fluorophenyl)methanone]	216 nM
COCC(=O)Nc1nc(-c2nc(C)ns2)n2c1[C@@H](C)N(C(=O)c1ccc(F)cc1)CC2 [Compound 089, (R)—N-(7-(4-fluorobenzoyl)-8-methyl-3-(3-methyl-1,2,4-thiadiazol-5-yl)-5,6,7,8-tetrahydroimidazo[1,5-a]pyrazin-1-yl)-2-methoxyacetamide]	58.6 nM

The remaining lines, values ahead:

IC50	Structure (SMILES)
72.5 nM	Cc1nsc(-c2nc(N3CCCCCC3=O)c3n2CCN(C(=O)c2ccc(F)cc2)[C@@H]3C)n1 [Compound 117]
65.7 nM	Cc1nsc(-c2nc(N3COCC3=O)c3n2CCN(C(=O)c2ccc(F)cc2)C3C)n1 (stereo not drawn) [Compound 169, 3-(7-(4-fluorobenzoyl)-8-methyl-3-(3-methyl-1,2,4-thiadiazol-5-yl)-5,6,7,8-tetrahydroimidazo[1,5-a]pyrazin-1-yl)oxazolidin-4-one]
88.1 nM	C[C@@H]1c2c(N3CCCC3=O)nc(-c3nc([C@@H](C)F)ns3)n2CCN1C(=O)c1ccc(F)cc1 [Compound 186, 1-((R)-7-(4-fluorobenzoyl)-3-(3-((R)-1-fluoroethyl)-1,2,4-thiadiazol-5-yl)-8-methyl-5,6,7,8-tetrahydroimidazo[1,5-a]pyrazin-1-yl)pyrrolidin-2-one]
35 nM	Cc1nsc(-c2nc(-c3ccncc3)c3n2CCN(C(=O)c2ccc(F)cc2)[C@@H]3C)n1 [Compound 026, (R)-(4-fluorophenyl)(8-methyl-3-(3-methyl-1,2,4-thiadiazol-5-yl)-1-(pyridin-4-yl)-5,6-dihydroimidazo[1,5-a]pyrazin-7 (8H)-yl)methanone]
51.7 nM	C[C@@H]1c2c(N3CCCC3=O)nc(-c3nc(C(F)(F)F)cs3)n2CCN1C(=O)c1ccc(F)cc1 [Compound 118, (R)-1-(7-(4-fluorobenzoyl)-8-methyl-3-(4-(trifluoromethyl)thiazol-2-yl)-5,6,7,8-tetrahydroimidazo[1,5-a]pyrazin-1-yl)pyrrolidin-2-one]
23.7 nM	Cc1nsc(-c2nc(N3CCN(C)CC3=O)c3n2CCN(C(=O)c2ccc(F)cc2)[C@@H]3C)n1 [Compound 084]
